Assay [1] addresses homogeneous recombinant AKR1C3 (Homo sapiens (Human), UniProt P42330). Put plainly: Inhibition of NADP+ dependent oxidation of S-tetralol catalyzed by AKR1C3. The assay is classed as biochemical. The conditions noted are these: S-tetralol substrate at Km.
Assay [2] addresses AKR1C1 (Homo sapiens (Human), UniProt Q04828). The assay can be described thus: Inhibition of S-tetralol oxidation, AKR1C1. The assay is classed as biochemical. The conditions noted are these: for IC50: S-tetralol substrate at Km. From the text: Inhibitors were initially screened for an ability to block the NADP+ dependent oxidation of the artificial substrate S-tetralol catalyzed by AKR1C3. S-tetralol was used since it is also a substrate of the highly related AKR1C1 and AKR1C2 enzymes.
Initially, the ratios of IC50 values for AKR1C2 versus AKR1C3 were compared. High ratios were indicative of high selectivity for AKR1C3.
The latter assay is used to determine whether lead compounds act as AR agonists or block 5α-DHT reporter gene activity by acting as androgen receptor antagonists.

For assay [3], the target named is AKR1C2 (Homo sapiens (Human), UniProt P52895). The assay can be described thus: Inhibition of S-tetralol oxidation, AKR1C2. The assay is classed as biochemical. As to conditions: for IC50: S-tetralol substrate at Km.
Sequence of AKR1C2 (P52895 whole entry): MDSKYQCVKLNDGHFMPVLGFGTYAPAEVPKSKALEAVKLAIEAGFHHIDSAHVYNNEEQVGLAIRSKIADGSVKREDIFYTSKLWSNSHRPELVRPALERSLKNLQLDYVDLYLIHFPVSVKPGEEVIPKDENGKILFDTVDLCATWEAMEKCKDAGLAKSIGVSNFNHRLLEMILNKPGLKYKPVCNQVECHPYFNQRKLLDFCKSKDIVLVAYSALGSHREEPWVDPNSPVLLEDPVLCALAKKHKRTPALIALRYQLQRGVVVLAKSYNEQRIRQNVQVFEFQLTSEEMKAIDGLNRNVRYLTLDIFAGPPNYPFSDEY
The target in assay [4] is AKR1C4 (Homo sapiens (Human), UniProt P17516). The assay can be described thus: Inhibition of S-tetralol oxidation, AKR1C4. The assay is classed as biochemical.
Sequence of AKR1C4 (P17516 whole entry): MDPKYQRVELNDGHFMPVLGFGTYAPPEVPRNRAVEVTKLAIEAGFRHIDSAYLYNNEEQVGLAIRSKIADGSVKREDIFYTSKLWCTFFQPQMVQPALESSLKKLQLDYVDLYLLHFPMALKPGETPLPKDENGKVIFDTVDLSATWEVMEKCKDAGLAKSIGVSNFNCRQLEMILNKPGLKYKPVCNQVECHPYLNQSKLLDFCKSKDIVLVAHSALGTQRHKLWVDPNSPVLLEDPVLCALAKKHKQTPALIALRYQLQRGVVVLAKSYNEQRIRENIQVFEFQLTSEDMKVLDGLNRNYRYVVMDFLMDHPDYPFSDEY
Assay [5] relates to androgen receptor (AR). Put plainly: HeLa-cell androgen receptor (AR) luciferase reporter gene assay driven by DHT. The assay is classed as cell-based. The conditions noted are these: for AR agonism or antagonism (DHT stimulation of the AR): AR luciferase reporter gene assay; for androgen receptor antagonism: luciferase AR reporter gene assay driven by DHT, FIG. 11. The source says:
Secondary screens involve one or more of: (a) a full-screen against all nine human recombinant AKR enzymes to ensure there are no-intended off-target effects; (b) a screen against COX-1 and COX-2 to reaffirm that compounds will not act as NSAIDs; and (c) a HeLa-cell androgen receptor (AR) reporter gene assay. The latter assay is used to determine whether lead compounds act as AR agonists or block 5α-DHT reporter gene activity by acting as androgen receptor antagonists.

For assay [6], the system named is COX-1. The assay can be described thus: Screen against COX-1. The assay is classed as biochemical. The conditions noted are these: at concentrations greater than 100 μM.
The subject of assay [7] is LNCaP cells stably transfected with AKR1C3. The assay can be described thus: Conversion of Δ4-androstene-3,17-dione to testosterone in LNCaP-AKR1C3 transfected cells. The assay is classed as cell-based, human. As to conditions: 30 μM. The source says: Tertiary screens involve one or more of (d) expanded reporter gene assays to determine whether compounds act as agonists or antagonists of other steroid hormone receptors; (e) inhibition of the conversion of Δ^4-androstene-3,17-dione to testosterone in androgen receptor dependent prostate cancer cells (including, but not limited to LNCaP; available from the American type Culture Collection (ATCC), Manassas, Va., United States of America) stably transfected with AKR1C3; and (f) inhibition of growth of castrate-resistant prostate cancer cells in a murine xenograft model.

The test system of assay [8] is VCaP cells. Put plainly: Δ4-androstene-3,17-dione driven expression of PSA in VCaP cells. The assay is classed as cell-based, human.
The test system of assay [9] is VCaP cells in a murine xenograft model. As to conditions: Cai et al., 2011; cited from earlier work.

“Also recorded” adds a separate entry of the source.

These results are taken from patent publication US9346803B2 (Vanderbilt University, priority 2011, dated 2016).

Sequence of AKR1C1 (Q04828 whole entry): as the sequence (P52895 whole entry) above, with V38T, H47R, V54L, S87C, M151V, H170R, L172Q counted along it
Sequence of homogeneous recombinant AKR1C3 (P42330 whole entry): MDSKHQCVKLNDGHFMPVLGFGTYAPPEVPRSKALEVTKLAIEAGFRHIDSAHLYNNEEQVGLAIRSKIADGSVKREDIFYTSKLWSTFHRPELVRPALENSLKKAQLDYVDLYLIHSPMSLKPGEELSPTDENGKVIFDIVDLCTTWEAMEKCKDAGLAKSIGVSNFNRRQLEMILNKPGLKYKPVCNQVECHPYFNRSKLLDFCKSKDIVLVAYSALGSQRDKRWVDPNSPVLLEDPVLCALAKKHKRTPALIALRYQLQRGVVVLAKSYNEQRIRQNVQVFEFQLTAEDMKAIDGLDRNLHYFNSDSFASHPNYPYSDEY

Turning to `COc1ccc2c(c1)c(CC(=O)NS(=O)(=O)C(F)(F)F)c(C)n2C(=O)c1ccc(Cl)cc1`, the concentration for half-maximal inhibition (IC50) in [1] came out at 0.74 µM; in assay [3], 81 µM. In assay [2] (number in parenthesis), the “fold selectivity for AKR1C3 over AKR1C1” value is above 135 fold. In addition, the “fold selectivity for AKR1C3 over AKR1C2” value in [3] (number in parenthesis, ratio of IC50 values) was determined as 108 fold. Moreover, the “fold selectivity for AKR1C3 over AKR1C4” value in assay [4] (number in parenthesis) was above 135 fold.

As to `COc1ccc2c(c1)c(CC(=O)O)c(C)n2C(=O)c1ccc(C)cc1`, the IC50 in [1] amounted to 0.16 µM.

`COc1ccc2c(c1)c(CC(=O)O)c(C)n2C(=O)c1ccc(CCl)cc1`: the half-maximal inhibitory concentration (IC50) turned out to be 0.12 µM in assay [1], 100 µM in assay [2] and 40.7 µM in [3].

`COc1ccc2c(c1)c(CC(=O)O)c(C)n2C(=O)c1ccc(C(F)(F)F)cc1` gave an IC50 in assay [3] of 35.7 µM.

Take `CCc1c(CCC(=O)O)n(C(=O)c2ccc(Cl)cc2)c2ccc(OC)cc12`: the concentration for half-maximal inhibition (IC50) in assay [1] was 0.09 µM; in assay [2], 30.7 µM; in assay [3] it was 49.6 µM.

Turning to `COc1ccc2c(c1)c1c(n2C(=O)c2ccc(Cl)cc2)CCC(C(=O)O)C1` (stereo not shown), the midpoint of inhibition in assay [4] (S-tetralol substrate at Km), the IC50, lay at 3.15 µM.

With `COc1ccc2c(c1)c(CC(=O)NS(=O)(=O)C(F)(F)F)cn2C(=O)c1ccc(Cl)cc1` [Compound 1], in assay [5], the “AR agonism or antagonism (DHT stimulation of the AR)” value (from here on “AR agonism or antagonism”) is “did not act as AR agonists or antagonists” and the androgen receptor antagonism entry is listed as “lack of androgen receptor antagonism”.

`COc1ccc2c(c1)c(C)c(CCC(=O)O)n2C(=O)c1ccc(Cl)cc1` [Compound 2]: the COX-1 inhibition result in assay [6] was “did not inhibit COX-1”. Also, in assay [5], the “AR agonism or antagonism” value is listed as “did not act as AR agonists or antagonists” and the androgen receptor antagonism entry was “lack of androgen receptor antagonism”. Also, the “conversion of Δ4-androstene-3,17-dione to testosterone” value in [7] is “completely blocked”.

With `COc1ccc2c(c1)c(C)c(CCC(=O)NS(C)(=O)=O)n2C(=O)c1ccc(Cl)cc1` [Compound 3], the COX-1 inhibition result in assay [6] is listed as “did not inhibit COX-1”. For the same compound, in assay [5], the “AR agonism or antagonism” value is listed as “did not act as AR agonists or antagonists” and the androgen receptor antagonism entry is recorded as “lack of androgen receptor antagonism”. Moreover, the “conversion of Δ4-androstene-3,17-dione to testosterone” value in assay [7] is listed as “completely blocked”.

In the case of `COc1ccc2c(c1)c(C)c(CCC(=O)O)n2C(=O)c1ccc(Cl)cc1` [drawing 37], the half-maximal inhibitory concentration (IC50) is 17.7 µM in [2] and 14.5 µM in [3].

`COc1ccc2c(c1)c(C)c(CCC(=O)NS(C)(=O)=O)n2C(=O)c1ccc(Cl)cc1` [drawing 38]: the results for the IC50 in assay [1], in assay [2] and in [3] were 0.34 µM, 100 µM and 93 µM, respectively.

As to `COc1ccc2c(c1)c(CC(=O)O)c(C)n2C(=O)c1ccc(Cl)cc1` [indomethacin], the “Δ4-androstene-3,17-dione driven expression of PSA” value in [8] was “blocked; also recorded: inhibition”. Moreover, the “AR dependent gene transcription and tumor growth in xenograft” value in assay [9] was “block AR dependent gene transcription and cell growth and proliferation of the tumor”.

In general, IC50 refers to the concentration at which inhibition is half-maximal.
